Experimental data taken from US6469141B1, “D1-like dopamine receptor activity modifying protein” (Medical College of Georgia Research Institute Inc., priority 1998, dated 2002).

Key:
hD1 receptors [1] = biological target: T1, hD1 receptors (Homo sapiens, UniProt P21728); experiment: Fura-2 Ca++ imaging of D1 receptor-stimulated Ca++i release in D1 HEK293 cells; format: cell-based; settings: for effect of PKC inhibitor on SKF81297-induced Ca++ mobilization: EGFP-Calcyon expressing D1 HEK293 cells, HCl
T1 construct: pLXSN (Clontech) plasmid containing full-length human D1 (Zhou et al., Nature 347:76-80 (1990)); expressed in transfected cells
Description: For Ca^++ imaging, cells were rinsed with HBS (150 mM NaCl, 10 mM NaHEPES, 10 mM glucose, 2.5 mM KCI, 4 mM CaCl2 and 2 mM MgCl2, pH 7.4) and then loaded with 5 μM Fura-2 AM (Molecular Probes) in HBS at RT. After 20 min, cells were washed three times with HBS. Assays were performed at RT in 1.5 ml of HBS. Drugs were prepared in HBS and manually applied. […] Images were collected with a CCD camera connected to a Silicon Graphics workstation, and analyzed with Inovision-Ratiotool 4.3.5. Transfected cells were identified by illumination at 490 nm, and selected as areas for analysis. […] Fluorescence emission at 510 nm was monitored for each excitation wavelength via the CCD camera at 10 s intervals. Average pixel intensities within 6-8 selected areas (each area corresponded to single transfected cell) for both wavelengths at each time point were digitized and stored on the computer.
Changes in Ca^++i levels were measured using ratiofluorometric imaging following bath application of ligand. […] In vivo, DA is considered primarily to be a neuromodulator. Therefore, to test whether Calcyon plays a role in the D1 receptor's ability to modulate other stimuli, we applied agonists of endogenous GPCRs prior to stimulating D1 receptors.
(§1) pEGFP-Calcyon was created by inserting a 0.9 kb Eco RI-Xho I fragment encoding full-length Calcyon into pEGFP-C3 (Clontech). pEGFP-C3 and pEGFP-Calcyon plasmid DNAs were transiently transfected into HEK293 and D1 HEK293 cell lines using Effectene™ (Qiagen) according to manufacturer's recommendations. 2.5×10^5 cells were seeded in 6-well plates, and transfected with 0.4:g plasmid DNA/well for Ca^++ imaging, cAMP, and immunoprecipitation assays.

hD1 receptors [2] = biological target: T1, hD1 receptors; experiment: cAMP assay in transfected D1 HEK293 cells; format: cell-based
Description: Following centrifugation to pellet proteins, cAMP levels in supernatant were determined by Direct cAMP Enzyme Immunoassay Kit (Assay Designs, Inc.) according to the supplier's protocol. […] Results (pmol cAMP/mg protein) are reported as average of three independent trans fection experiments.
It was determined whether Calcyon influenced D1 receptor coupling to the cAMP second messenger system in D1 HEK293 cells transfcctcd with expression plasmids encoding either enhanced green fluorescent protein (EGFP), or Calcyon tagged at its N-terminus by EGFP.
as §1

[3] = tested on: endogenous P2Y purinergic receptors; experiment: Fura-2 Ca++ imaging, P2Y receptor-stimulated Ca++i release in D1 HEK293 cells; format: cell-based, human
Description: Drugs were prepared in HBS and manually applied.
Changes in Ca^++i levels were measured using ratiofluorometric imaging following bath application of ligand. Application of DA or 10:M […] produced no detectable response in untransfected D1 HEK293 cells, or cells expressing either EGFP or EGFP-Calcyon. In vivo, DA is considered primarily to be a neuromodulator. Therefore, to test whether Calcyon plays a role in the D1 receptor's ability to modulate other stimuli, we applied agonists of endogenous GPCRs prior to stimulating D1 receptors. […].

[4] = biological target: T2, GSTD1 (C-terminal 81 residues of hD1 receptor) (Homo sapiens, UniProt P21728); experiment: S-agarose pull-down assay with GSTD1 fusion protein; format: binding; settings: immunoblot with D1 receptor antibodies
T2 construct: C-terminal 81 amino acids of the hD1 receptor (residues 365-446); made in house; host or cells: S-Calcyon: BL21(DE3) E. coli
T2 sequence (P21728 365-446): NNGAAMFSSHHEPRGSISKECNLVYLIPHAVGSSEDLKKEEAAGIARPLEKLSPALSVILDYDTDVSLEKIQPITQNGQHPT
T2 sequence (Q9NYX4 93-217 partner): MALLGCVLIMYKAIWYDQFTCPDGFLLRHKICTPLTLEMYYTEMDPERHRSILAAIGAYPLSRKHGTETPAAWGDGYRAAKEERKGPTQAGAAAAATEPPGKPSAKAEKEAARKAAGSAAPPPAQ
Excerpt: For pull-down assays, a 550 bp Nco I-Bgl II fragment from pACT-Calcyon was subcloned into pET30a (Novagen, Madison, Wis.) to produce the S-Calcyon fusion protein containing residues 93-217 of the predicted Calcyon protein as well as an N-terminal tag composed of the 15 residue S peptide of ribonuclease S (Richards, F. M., et al., The Enzymes. ed.: Boyer, P. D., Academic Press, N.Y., pp. 647-806 (1971)). The S-β-galactosidase fusion protein was composed of bacterial β-galactosidase protein tagged at its N-terminus with the S peptide. Fusion proteins were induced in BL2I(DE3) E. coli with IPTG, and coupled to S-agarose resin (Novagen, Madison, Wis.) by incubating soluble fractions of bacterial lysates with resin for 1 h at RT Following incubation, unbound proteins were eliminated by washing the resin three times in 50 volumes of 25 mM HEPES (pH 7.4), 50 mM NaCl. Interaction assays were performed with GSTD1 purified as described (Bergson, C., et al., J. Neurosci. 15:7821-36 (1995)) or solubilized lysates of D1 HEK293 cells in 25 mM HEPES (pH 7.4), 50 mM NaCl, 10% glycerol, 1% bovine serum albumin containing 0.5% NP-40. Peptidel 421-435 ([…]) (SEQ ID No. 3) and Peptide2 ([…]) (SEQ ID No. 4) were synthesized using an Applied Biosystems 430A Peptide Synthesizer using the FastMoc procedures and reagents supplied by Perkin-Elmer, Applied Biosystems division. […]

protein kinase C (PKC) = experiment: 32P-orthophosphate in vivo labeling and GFP mab immunoprecipitation of EGFP-Calcyon; format: cell-based, human; settings: 100 nM PMA, 0.5 h
Description: Approximately 40 h after transfection, pEGFP or pEGFP-Calcyon transfected D1 HEK293 cells were washed and placed in HBS (phosphate-free media) for 1.5 h prior to addition of [^32P] orthophosphate (135 μCi/ml). 2 h later, cells were treated with 100 nM PMA (Phorbol 12-Myristate 13-Acetate) in HBS for 0.5 h at 37°. Cells were then washed once in cold PBS and solubilized in mild lysis solution (Cytosignal, Irvine, Calif.) containing protease inhibitor cocktail (Boehringer Manheim) and phosphatase inhibitors, 50 μM NaF and 5 μM EGTA. Lysates were centrifuged for 5 min at 14,000 rpm and the supernatant was incubated at RT. for 1 h with mouse anti-GFP mab (Clontech, Palo Alto, Calif.) (diluted 1:100), followed by 0.02 volume of protein A/G agarose slurry for 30 min. The resin was washed twice with mild lysis solution, and adsorbed proteins eluted in SDS PAGE loading buffer (Laemmli, U.K., Nature 227:680-5 (1970)). Samples were analyzed by SDS-PAGE, using a 15% gel (Bio-Rad). The gel was dried and visualized using a Phosphorimager SF (Molecular Dynamics). […]
The Calcyon sequence contains two consensus protein kinase C (PKC) phosphorylation sites within its predicted cytoplasmic domain. […] GFP mab immunoprecipated a ^32P-labeled protein from pEGFP-Calcyon transfected cells with size equal to that detected by Calcyon antibodies. […]

D1 receptor = D1 receptor (Homo sapiens, UniProt P21728); experiment: D1 receptor response to dopamine in presence of P24; settings: effect of P24
D1 DA receptors = biological target: T3, D1 DA receptors (Homo sapiens, UniProt P21728); experiment: co-immunoprecipitation with GFP mab from transfected D1-HEK293 cells; format: binding
T3 construct: pLXSN (Clontech) plasmid containing full-length human D1 (Zhou et al., Nature 347:76-80 (1990)); expressed in transfected cells; host or cells: D1-HEK293 cells, transiently transfected with pEGFP-P24
Excerpt: A series of experiments were then undertaken to functionally characterize the interaction between P24 and D1 receptor proteins. D1-HEK293 cells, a HEK293 cell line that expresses hD1 receptors, and pEGFP-P24 expression plasmid were used for these studies. pEGFP-P24 encodes P24 protein tagged at its N-terminus by enhanced green fluorescent protein (EGFP). The N-terminal EGFP tag allowed testing to determine whether P24 directly associates with D1 DA receptors when coexpressed in mammalian cells in a “pull-down” assay. D1 receptors co-immunoprecipitated with EGFP-P24 fusion protein transiently expressed in transfected D1-HEK293 cells, and were “pulled down” by GFP mab.

T1 sequence (P21728 whole entry): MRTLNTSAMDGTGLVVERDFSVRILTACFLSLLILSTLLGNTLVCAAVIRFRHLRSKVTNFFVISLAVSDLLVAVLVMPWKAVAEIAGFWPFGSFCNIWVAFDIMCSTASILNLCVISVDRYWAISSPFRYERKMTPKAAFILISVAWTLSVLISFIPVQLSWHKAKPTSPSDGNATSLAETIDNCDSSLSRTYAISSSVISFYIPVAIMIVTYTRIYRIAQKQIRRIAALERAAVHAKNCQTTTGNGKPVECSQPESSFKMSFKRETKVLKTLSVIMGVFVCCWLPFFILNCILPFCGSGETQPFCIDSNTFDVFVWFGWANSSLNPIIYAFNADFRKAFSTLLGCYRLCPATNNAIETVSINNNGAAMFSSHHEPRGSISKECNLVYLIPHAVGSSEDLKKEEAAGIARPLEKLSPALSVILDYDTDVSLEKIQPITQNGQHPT
Chain of D1 receptor (P21728 whole entry): as above
T3 sequence (P21728 whole entry): as above

Molecule: CN(C)CCCn1cc(C2=C(c3c[nH]c4ccccc34)C(=O)NC2=O)c2ccccc21.Cl [bisindolylmaleimide I HCl]
- effect of PKC inhibitor on SKF81297-induced Ca++ mobilization (hD1 receptors [1]): considerably attenuated
- effect of PKC inhibitor on SKF81297-induced Ca++ mobilization (hD1 receptors [1]; listed as bisindolylmalemide): inhibits Calcyon-enabled D1 stimulated Cai^++ release
- effect of PKC inhibitor on D1 receptor-stimulated Ca++i release (hD1 receptors [1]; EGFP-Calcyon expressing cells treated with carbachol): reduced D1 receptor-stimulated Ca^++i release
- cAMP levels stimulated by ATP and SKF81297, BisI-treated compared to untreated cells (hD1 receptors [2]): similar

Molecule: Nc1ncnc2c1ncn2[C@@H]1O[C@H](COP(=O)(O)OP(=O)(O)OP(=O)(O)O)[C@@H](O)[C@H]1O [ATP]
- Ca++i response ([3]; D1 HEK293 cells): produced a rise in Ca^++i
- duration of P2Y receptor Ca++i response ([3]; EGFP expressing cells): 300 to 400 s
- duration of P2Y receptor Ca++i response ([3]; EGFP-Calcyon expressing cells, following application of BisI): 300 to 400 s

Molecule: SVILDYDTDVSLEKI (listed as Homo sapiens) [Pep421-435]
- block of interaction between GSTD1 and S-Calcyon by peptide [4]: prevented detection of the immunoreactive GSTD1 band

Molecule: CCCCCCCCCCCCCC(=O)O[C@@H]1[C@@H](C)[C@@]2(O)[C@@H](C=C(CO)C[C@]3(O)C(=O)C(C)=C[C@@H]23)[C@@H]2C(C)(C)[C@]12OC(C)=O [PMA, phorbol 12-myristate 13-acetate]
- 32P label incorporated into immunoprecipitated EGFP-Calcyon, treated vs untreated cells (protein kinase C (PKC)): approximately five times more label incorporated

B1: Calcyon: 217 residue single transmembrane protein encoded by K 37 cDNA (SEQ ID No. 1) that interacts with the hD1 DA receptor (protein)
chain: MVKLGCSFSGKPGKDPGDQDGAAMDSVPLISPLDISQLQPPLPDQVVIKTQTEYQLSSPDQQNFPDLEGQRLNCSHPEEGRRLPTARMIAFAMALLGCVLIMYKAIWYDQFTCPDGFLLRHKICTPLTLEMYYTEMDPERHRSILAAIGAYPLSRKHGTETPAAWGDGYRAAKEERKGPTQAGAAAAATEPPGKPSAKAEKEAARKAAGSAAPPPAQ
modifications: D1-Like dopamine receptor activity modifying protein
- effect of Calcyon expression on D1 receptor-stimulated Ca++i mobilization (hD1 receptors [1]; EGFP-Calcyon vs EGFP expressing cells, D1 agonist after ATP): enhance the ability of D1 receptors to mobilize Ca^++i
- threshold of D1 receptor response to dopamine (D1 receptor): lowers the threshold of D1 receptor response to dopamine (DA) by an order of magnitude
- effect of Calcyon expression on D1 receptor-stimulated cAMP (hD1 receptors [2]; DA-stimulated cAMP, EGFP vs EGFP-Calcyon cells): does not alter D1 receptor activation of cAMP-dependent signaling pathways

B2: EGFP-P24: P24 protein tagged at its N-terminus by enhanced green fluorescent protein (protein)
chain: B1 chain
modifications: left off: large carriers
- co-immunoprecipitation of D1 receptors (D1 DA receptors): co-immunoprecipitated
